Experimental data: ChEMBL document CHEMBL3612052, “Identification of amino acid appended acridines as potential leads to anti-cancer drugs” (Bioorg Med Chem Lett, 2015)
pIC50: −log10 of the molar value. Activity calls are given as the source filed them. The rule behind the calls is not given here.

Legend:
[1] = tested on: C6; assay: Cell cycle arrest in rat C6 cells assessed as accumulation at G0/G1 phase at 10 uM after 36 hrs by propidium iodide staining-based flow cytometric analysis; assay type: functional
[2] = tested on: C6; assay: Antiproliferative activity against rat C6 cells after 72 hrs by MTT assay; assay type: functional, cell-based; conditions: C6, 72 h
[3] = tested on: C6; assay: Cell cycle arrest in rat C6 cells assessed as accumulation at G0/G1 phase at 10 uM after 36 hrs by propidium iodide staining-based flow cytometric analysis relative to control; assay type: functional
[4] = tested on: C6; assay: Antiproliferative activity against rat C6 cells assessed as appearance of small cell body at 20 uM by alpha-tubulin immunostaining-based phase contrast microscopic analysis; assay type: functional
[5] = tested on: C6; assay: Downregulation of GFAP expression in rat C6 cells by DAPI staining-based confocal microscopic analysis; assay type: functional, cell-based
[6] = tested on: C6; assay: Antiproliferative activity against rat C6 cells assessed as appearance of differentiated morphology with long stellate process at 10 to 20 uM by DAPI staining-based confocal microscopic analysis; assay type: functional, cell-based
[7] = tested on: C6; assay: Cell cycle arrest in rat C6 cells assessed as decrease in cell number in G2/M phase at 10 uM after 36 hrs by propidium iodide staining-based flow cytometric analysis relative to control; assay type: functional
[8] = tested on: C6; assay: Antiproliferative activity against rat C6 cells assessed as appearance of differentiated morphology with long stellate process at 20 uM by alpha-tubulin immunostaining-based phase contrast microscopic analysis; assay type: functional, cell-based
[9] = tested on: C6; assay: Induction of senescence in rat C6 cells assessed as upregulation of mortalin expression in nucleus by DAPI staining-based confocal microscopic analysis; assay type: functional, cell-based
[10] = tested on: C6; assay: Antiproliferative activity against rat C6 cells assessed as reduction in cell number at 20 uM by alpha-tubulin immunostaining-based phase contrast microscopic analysis; assay type: functional
[11] = tested on: C6; assay: Antiproliferative activity against rat C6 cells at 10 uM by phase contrast microscopic analysis relative to control; assay type: functional, cell-based
[12] = tested on: C6; assay: Induction of senescence in rat C6 cells assessed as translocation of mortalin from perinuclear region to pancytoplasmic region by DAPI staining-based confocal microscopic analysis; assay type: functional, cell-based
[13] = tested on: C6; assay: Antiproliferative activity against rat C6 cells assessed as reduction in cell number at 10 to 20 uM by DAPI staining-based confocal microscopic analysis; assay type: functional
[14] = tested on: C6; assay: Induction of senescence in rat C6 cells assessed as upregulation of HSP70 expression at 10 ug/ml by DAPI staining-based confocal microscopic analysis; assay type: functional, cell-based
[15] = tested on: C6; assay: Antiproliferative activity against rat C6 cells assessed as appearance of small cell body at 10 to 20 uM by DAPI staining-based confocal microscopic analysis; assay type: functional
[16] = tested on: C6; assay: Cell cycle arrest in rat C6 cells assessed as decrease in cell number in S phase at 10 uM after 36 hrs by propidium iodide staining-based flow cytometric analysis relative to control; assay type: functional

Compound: O=C(N[C@@H](Cc1ccc(O)cc1)C(=O)O)c1cccc2c(=O)c3ccccc3[nH]c12
- Activity [1]: Active
- pIC50 [2]: 4.85

Compound: O=C(N[C@@H](Cc1ccc(O)cc1)C(=O)NCC(=O)N1CCC[C@H]1C(=O)O)c1cccc2c(=O)c3ccccc3[nH]c12
- Activity [3]: Active
- Activity [4]: Active
- Activity [5]: Active
- Activity [6]: Active
- Activity [7]: Active
- Activity [8]: Active
- Activity [9]: Active
- Activity [1]: Active
- Activity [10]: Active
- Activity [11]: Active
- Activity [12]: Active
- Activity [13]: Active
- Activity [14]: Active
- Activity [15]: Active
- Activity [16]: Active
- pIC50 [2]: 4.85

Compound: O=C(O)CNC(=O)[C@@H]1CCCN1C(=O)[C@H](Cc1ccc(O)cc1)NC(=O)c1cccc2c(=O)c3ccccc3[nH]c12
- Activity [3]: Active
- Activity [4]: Active
- Activity [5]: Active
- Activity [6]: Active
- Activity [7]: Active
- Activity [8]: Active
- Activity [9]: Active
- Activity [1]: Active
- Activity [10]: Active
- Activity [11]: Active
- Activity [12]: Active
- Activity [13]: Active
- Activity [14]: Active
- Activity [15]: Active
- Activity [16]: Active
- pIC50 [2]: 4.85

Compound: COC(=O)[C@H](Cc1ccc(O)cc1)NC(=O)c1cccc2c(=O)c3ccccc3[nH]c12
- Activity [1]: Active
- pIC50 [2]: 4.85

Compound: COC(=O)[C@@H](NC(=O)c1cccc2c(=O)c3ccccc3[nH]c12)C(C)C
- Activity [1]: Active
- pIC50 [2]: 4.85

Compound: COC(=O)CNC(=O)[C@H](Cc1ccc(O)cc1)NC(=O)c1cccc2c(=O)c3ccccc3[nH]c12
- Activity [3]: Active
- Activity [4]: Active
- Activity [5]: Active
- Activity [6]: Active
- Activity [7]: Active
- Activity [8]: Active
- Activity [9]: Active
- Activity [1]: Active
- Activity [10]: Active
- Activity [11]: Active
- Activity [12]: Active
- Activity [13]: Active
- Activity [14]: Active
- Activity [15]: Active
- Activity [16]: Active
- pIC50 [2]: 4.85
